The record followed here is patent publication US8252796B2, “1-butyl-2-hydroxyaralkyl piperazine derivatives and the uses as anti-depression medicine thereof” (CSPC Zhonggi Pharmaceutical Technology (Shijiazhuang) Co. …, priority 2008, dated 2012).

As a reminder, the IC50 is the midpoint of a concentration-inhibition curve. Lower therefore signals greater potency.

What all share (assay type): biochemical
For assay [1], the target named is T1, DA reuptake, Rat striatum synaptosome (Rattus norvegicus, UniProt P23977).
T1 construct: Rat striatum; from tissue; host or cells: rat striatum synaptosomes
T1 sequence (P23977 whole entry): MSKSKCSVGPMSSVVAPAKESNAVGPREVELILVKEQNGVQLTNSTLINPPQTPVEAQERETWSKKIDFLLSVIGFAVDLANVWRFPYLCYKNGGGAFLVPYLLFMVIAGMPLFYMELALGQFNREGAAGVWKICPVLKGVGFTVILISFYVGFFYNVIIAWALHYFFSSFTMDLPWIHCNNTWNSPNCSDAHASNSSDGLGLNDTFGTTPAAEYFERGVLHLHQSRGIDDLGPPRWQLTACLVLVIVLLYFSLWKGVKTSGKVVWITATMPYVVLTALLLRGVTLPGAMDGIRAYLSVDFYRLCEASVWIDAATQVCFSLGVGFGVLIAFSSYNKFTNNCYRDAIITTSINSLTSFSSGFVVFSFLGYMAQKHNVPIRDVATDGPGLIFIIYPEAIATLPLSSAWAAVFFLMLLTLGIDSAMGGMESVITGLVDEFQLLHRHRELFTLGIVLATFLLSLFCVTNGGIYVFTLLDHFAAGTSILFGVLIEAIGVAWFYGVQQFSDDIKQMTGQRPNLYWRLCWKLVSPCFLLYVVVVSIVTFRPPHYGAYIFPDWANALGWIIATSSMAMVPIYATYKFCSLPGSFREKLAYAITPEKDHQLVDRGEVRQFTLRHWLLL
The assay can be described thus: DA reuptake, optical isomers (Example 37). The following applies: 15 min/37° C. From the text:
(§1) 3. Experiment Results (IC50 Value was Obtained by Nonlinear Regression Analysis of Inhibition Rate/Concentration Response Curve)

The target in assay [2] is T2, NE reuptake, Rat hypothalamus synaptosome (Rattus norvegicus, UniProt Q9WTR4).
T2 construct: hypothalamus; from tissue; host or cells: rat hypothalamus synaptosomes
T2 sequence (Q9WTR4 1-597): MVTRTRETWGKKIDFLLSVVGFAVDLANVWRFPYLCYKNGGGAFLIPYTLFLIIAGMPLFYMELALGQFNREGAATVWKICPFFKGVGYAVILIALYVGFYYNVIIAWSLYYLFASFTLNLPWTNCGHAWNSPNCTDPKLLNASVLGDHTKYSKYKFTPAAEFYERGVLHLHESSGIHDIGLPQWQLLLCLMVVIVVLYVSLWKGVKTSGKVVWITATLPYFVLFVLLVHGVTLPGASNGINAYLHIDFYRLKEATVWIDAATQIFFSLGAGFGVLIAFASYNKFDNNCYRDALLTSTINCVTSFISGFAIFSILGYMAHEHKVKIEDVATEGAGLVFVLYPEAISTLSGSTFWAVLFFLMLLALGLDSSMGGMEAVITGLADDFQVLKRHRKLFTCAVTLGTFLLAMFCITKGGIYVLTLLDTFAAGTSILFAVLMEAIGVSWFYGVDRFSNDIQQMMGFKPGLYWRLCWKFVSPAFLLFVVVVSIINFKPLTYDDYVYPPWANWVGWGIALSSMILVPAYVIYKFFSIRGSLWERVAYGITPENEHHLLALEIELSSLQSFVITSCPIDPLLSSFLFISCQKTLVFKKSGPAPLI
The assay can be described thus: NE reuptake, optical isomers (Example 37). The following applies: 20 min/37° C.
Description: as §1

Assay [3] addresses T3, 5-HT reuptake, Rat brain synaptosome (Rattus norvegicus, UniProt P31652).
T3 construct: Rat brain; from tissue; host or cells: rat brain synaptosomes
The assay can be described thus: 5-HT reuptake, optical isomers (Example 37). To be noted: 15 min/37° C.
Description: as §1

T3 sequence (P31652 whole entry): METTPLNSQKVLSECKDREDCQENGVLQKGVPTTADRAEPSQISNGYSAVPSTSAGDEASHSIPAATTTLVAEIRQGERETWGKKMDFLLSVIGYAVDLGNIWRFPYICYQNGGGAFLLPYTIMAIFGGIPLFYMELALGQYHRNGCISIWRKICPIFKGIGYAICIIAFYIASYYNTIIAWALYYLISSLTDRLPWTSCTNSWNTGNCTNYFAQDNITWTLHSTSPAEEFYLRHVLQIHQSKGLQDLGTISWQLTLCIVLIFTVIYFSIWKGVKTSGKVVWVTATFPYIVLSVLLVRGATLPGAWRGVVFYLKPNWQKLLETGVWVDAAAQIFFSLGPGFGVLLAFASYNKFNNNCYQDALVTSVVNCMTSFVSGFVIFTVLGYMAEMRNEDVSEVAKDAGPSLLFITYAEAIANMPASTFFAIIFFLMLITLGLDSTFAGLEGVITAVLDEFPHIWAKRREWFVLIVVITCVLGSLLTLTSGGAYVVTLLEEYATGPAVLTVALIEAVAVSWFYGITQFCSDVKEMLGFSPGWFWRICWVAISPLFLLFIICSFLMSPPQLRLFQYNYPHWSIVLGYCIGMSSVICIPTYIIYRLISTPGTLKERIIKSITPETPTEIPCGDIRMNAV

Turning to `CCCCC(C(O)c1ccc2c(Cl)c(OC)ccc2c1)N1CCN(Cc2ccccc2)CC1` [IX-26, (1R,2R)-N^1-benzyl-N^4-[1-butyl-2-(5′-chloro-6′-methoxyl-2′-naphthyl)hydroxyethyl]piperazine], the IC50 amounted to 1.1 µM in assay [1], 1.2 µM in assay [2] and 1.2 µM in assay [3].
